Data published in PubChem BioAssay (NCI).
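Following 48 hours of exposure in 96-well plates, responses at five concentrations were used to interpolate endpoints linearly. TGI: concentration producing complete growth inhibition.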 Where a SMILES comes first, the peptide text is derived from it. [ ]: non-standard residue; d: D form. Phe(4-NO2) = N[CH](Cc1ccc([N+](=O)[O-])cc1)C(=O)O

Columns and labels:
Assay in all cases: NCI anticancer screen, dose series, 48 h
[1] = system: NCI/ADR-RES ovarian
[2] = system: MDA-MB-435
[3] = system: SK-OV-3 ovarian
[4] = system: MCF7 breast
[5] = system: RPMI-8226 leukemia
[6] = system: OVCAR-4 ovarian
[7] = system: EKVX NSCLC
[8] = system: NCI-H23 lung
[9] = system: ACHN renal
[10] = system: RXF 393 renal
[11] = system: HOP-62 NSCLC
[12] = system: SF-539 CNS
[13] = system: HL-60(TB) leukemia
[14] = system: OVCAR-5 ovarian
[15] = system: HT29 colon
[16] = system: U251 CNS
[17] = system: A498 renal
[18] = system: OVCAR-8 ovarian
[19] = system: UACC-257 melanoma
[20] = system: NCI-H522 lung

SMILES | TGI [1] [µM] | TGI [2] [µM] | TGI [3] [µM] | TGI [4] [µM] | TGI [5] [µM] | TGI [6] [µM] | TGI [7] [µM] | TGI [8] [µM] | TGI [9] [µM] | TGI [10] [µM] | TGI [11] [µM] | TGI [12] [µM] | TGI [13] [µM] | TGI [14] [µM] | TGI [15] [µM] | TGI [16] [µM] | TGI [17] [µM] | TGI [18] [µM] | TGI [19] [µM] | TGI [20] [µM]
NNC(=O)CCSc1ccccc1 | > 100 | > 100 | > 100 | > 100 | > 100 | > 100 | > 100 | > 100 | > 100 | > 100 | > 100 | > 100 | > 100 | > 100 | > 100 | > 100 | > 100 | > 100 | > 100 | > 100
CC(=NNC(=S)Nc1cccc(C)c1)c1cccc(C(C)=NNC(=S)Nc2cccc(C)c2)n1 | 76.6 | > 100 | > 100 | 77.7 | > 100 | 38.5 | > 100 | > 100 | 46.4 | 61.1 | > 100 | 46.1 | 70.1 | > 100 | > 100 | 93.3 | 61.6 | 76.3 | 0.0745 | 57.9
N#Cc1cc([N+](=O)[O-])ccc1NC(=O)/C(=N\NC(=O)c1ccncc1)C(c1cnc2ccc([N+](=O)[O-])cc2n1)[N+](=O)[O-] (stereo not given) | 37 | 2.59 | 20 | 3.37 | 41.7 | 5.76 | 25.1 | 2.65 | 9.14 | 10.8 | 6.8 | 3.63 | 10.6 | 22.4 | 41.8 | 6.63 | 17.7 | 9.83 | 3.05 | 3.46
Cc1c2c(OCC(O)CN3CCN(c4ccccc4)CC3)nn(C)c(=O)c2c(C)n1-c1ccccc1 (stereo not given) | 63.8 | 91.8 | > 100 | 36.5 | 52.5 | > 100 | > 100 | 46.4 | 49.6 | 70.2 | > 100 | 33.6 | 49.1 | 62 | 46.3 | 30.2 | 58.6 | > 100 | 72.1 | 42.2
Cn1c(=O)c2c(nc3sc4c(n32)C(=O)c2c(O)ccc(O)c2C4=O)n(C)c1=O | 17.1 | 15.5 | > 100 | 3.41 | 2.04 | 2.92 | 33.8 | 21.2 | 8.33 | 5.59 | 30 | 15.6 | 2.83 | 48.6 | 4.34 | > 48.7 | 57.4 | 11 | 28.5 | 0.369
COC(=O)C1=C(OC(=O)/C(=C/c2ccccc2)c2ccc(Cl)cc2)C(C(=O)OC)[C@@]2(O)[C@@H](C(=O)OC)[C@H](C)C[C@@H]1[C@@H]2C(=O)OC (stereo not given in full) | > 100 | > 100 | > 100 | > 100 | > 100 | > 100 | > 100 | > 100 | > 100 | > 100 | > 100 | > 100 | > 100 | > 100 | > 100 | > 100 | > 100 | > 100 | > 100 | > 100
OC[P+](CO)(CO)C12CC3CC(CC(C3)C1)C2 | > 100 | > 100 | > 100 | > 100 | 59.2 | > 100 | > 100 | > 100 | > 100 | > 100 | > 100 | > 100 | 35.4 | > 100 | > 100 | > 100 | > 100 | > 100 | > 100 | > 100
NC(=O)c1cccc(N=c2oc3ccc(Br)cc3cc2-c2nc3ccccc3[nH]2)c1 | 35.9 | 39.4 | 32.7 | 31.9 | 53.4 | 47.5 | 32.6 | 32.7 | 32.2 | 43.5 | 33.8 | 14.4 | 51.3 | 30.2 | 34.7 | 31 | 35.8 | 28.2 | 43.4 | 77.4
O=C(SC1=NCCN1)c1cccc2ccccc12 | > 100 | > 100 | > 100 | > 100 | 94.6 | > 100 | > 100 | > 100 | > 100 | > 100 | > 100 | > 100 | 67 | > 100 | > 100 | > 100 | > 100 | > 100 | 95.9 | 74.9
CC(NC(=O)C(Cc1ccc([N+](=O)[O-])cc1)NC(=O)C(N)CCCCN)C(=O)NC(Cc1ccc([N+](=O)[O-])cc1)C(N)=O (stereo not given) (H-K[Phe(4-NO2)]A[Phe(4-NO2)]-NH2; configuration not given here) | > 100 | > 71.5 | > 100 | > 100 | > 44.7 | > 100 | > 100 | > 100 | > 100 | > 100 | > 52.1 | > 83.9 | > 48.9 | > 100 | > 100 | > 100 | > 100 | > 100 | > 84.7 | > 44.4
CCOC(=O)CCSc1nc2ccc(I)cc2c(=O)n1Cc1ccccc1 | > 60.3 | > 89 | > 100 | > 100 | 33.5 | > 77.1 | 82.4 | > 64.4 | > 83 | > 100 | > 75.2 | > 100 | > 73.7 | > 100 | > 100 | > 100 | > 79.2 | > 100 | > 92.2 | 52.5
CCOC(=O)C1(C(=O)OCC)C[C@@H](C)[C@@H](O)C1 | > 100 | > 100 | > 100 | > 100 | > 100 | > 100 | > 100 | > 100 | > 100 | > 100 | > 100 | > 100 | > 100 | > 100 | > 100 | > 100 | > 100 | > 100 | > 100 | > 100
COC(=O)C1=C(OC(=O)c2ccccc2)C(C(=O)OC)[C@@]2(O)[C@@H](C(=O)OC)[C@H](C)C[C@@H]1[C@@H]2C(=O)OC (stereo not given in full) | 44.8 | > 100 | > 100 | > 100 | > 100 | > 100 | > 100 | > 100 | > 100 | 42.9 | > 100 | 34.5 | > 100 | > 100 | > 100 | > 100 | 94.5 | > 100 | > 100 | 33
NC(=O)c1ncn(C2OC(CO)C(O)C2O)c1NC=O (stereo not given) | > 100 | > 100 | > 100 | > 100 | > 100 | > 100 | > 100 | > 100 | > 100 | > 100 | > 100 | > 100 | > 100 | > 100 | > 100 | > 100 | > 100 | > 100 | > 100 | > 100
Cc1occc1C(=S)Nc1ccc(Cl)c(/C=N/OC(C)(C)C)c1 | 32.7 | 31.7 | 58.7 | 42.9 | 47.8 | 45 | 43.3 | 34.4 | 30.6 | 31.1 | 45.9 | > 100 | 51.5 | 31.3 | 28.5 | 28.5 | 40.2 | 38.8 | 31.7 | 24.8
COC(=O)c1ccccc1CC(Cc1ccc2c(c1)CCC2)C(=O)OC (stereo not given) | > 100 | > 100 | > 100 | > 100 | > 100 | > 100 | > 100 | > 100 | > 100 | > 100 | > 100 | > 100 | > 100 | > 100 | > 100 | > 100 | > 100 | > 100 | > 100 | > 100
O=C(O)c1cc(=O)c2c(OCC(O)COc3cccc4oc(C(=O)O)cc(=O)c34)cccc2o1 | > 100 | > 100 | > 100 | > 100 | > 100 | > 100 | > 100 | > 100 | > 100 | > 100 | > 100 | > 100 | > 100 | > 100 | > 100 | > 100 | > 83.6 | > 100 | > 100 | > 75.2
C[C@]12CC[C@H]3[C@@H](CC=C4C[C@@H](O)CC[C@@]43C)[C@@H]1C/C(=C/c1ccccc1)[C@@H]2O | > 89.1 | > 83.4 | > 66.7 | > 68.2 | > 100 | > 73.2 | > 70 | > 100 | > 61.4 | > 57 | 54.8 | > 86.2 | > 100 | > 76.5 | > 79.3 | > 50.5 | 35.8 | 52.1 | 45.4 | > 100
CC(=O)O[C@@H]1C(=O)N(c2ccccc2)[C@@H]1c1cc2ccccc2c2ccccc12 | > 100 | 48.1 | > 100 | > 100 | 82.6 | 78.5 | > 100 | > 100 | > 100 | 62.6 | > 100 | 96.9 | 58.2 | > 100 | > 100 | > 100 | > 100 | > 100 | > 100 | 11.2
